Results taken from the CheMixHub viscosity set.

Test: xn = mol fraction of the nth substance listed

CC(C)CC(C)(C)C + C1CCCCC1
viscosity [mPa·s]
Conditions | 298.15 K | 303.15 K | 308.15 K | 313.15 K | 318.15 K | 323.15 K
101 kPa, x2 = 0.1052 | – | 0.4666 | – | – | – | –
101 kPa, x2 = 0.1988 | – | 0.4842 | – | – | – | –
101 kPa, x2 = 0.3026 | – | 0.505 | – | – | – | –
101 kPa, x2 = 0.4095 | – | 0.5328 | – | – | – | –
101 kPa, x2 = 0.5008 | – | 0.5579 | – | – | – | –
101 kPa, x2 = 0.6005 | – | 0.5947 | – | – | – | –
101 kPa, x2 = 0.7002 | – | 0.6379 | – | – | – | –
101 kPa, x2 = 0.8014 | – | 0.6902 | – | – | – | –
101.33 kPa, x1 = 0.035 | 0.8617 | 0.7932 | 0.7312 | 0.6779 | 0.6323 | 0.5887
101.33 kPa, x1 = 0.0662 | 0.8283 | 0.7645 | 0.7054 | 0.6567 | 0.6115 | 0.5733
101.33 kPa, x1 = 0.1012 | 0.8041 | 0.741 | 0.6844 | 0.6377 | 0.5952 | 0.5565
101.33 kPa, x1 = 0.1376 | 0.7806 | 0.718 | 0.6639 | 0.6192 | 0.5793 | 0.5402
101.33 kPa, x1 = 0.1754 | 0.7572 | 0.6953 | 0.6438 | 0.6 | 0.5628 | 0.5235
101.33 kPa, x1 = 0.2147 | 0.7344 | 0.6732 | 0.6242 | 0.5813 | 0.5467 | –
101.33 kPa, x1 = 0.2557 | 0.7147 | 0.6528 | 0.6066 | 0.5646 | 0.5318 | –
101.33 kPa, x1 = 0.2984 | 0.6954 | 0.633 | 0.5895 | 0.5483 | 0.5172 | –
101.33 kPa, x1 = 0.343 | 0.6717 | 0.6129 | 0.5717 | 0.5322 | 0.5024 | –
101.33 kPa, x1 = 0.3895 | 0.6484 | 0.5933 | 0.5545 | 0.5166 | 0.488 | –
101.33 kPa, x1 = 0.4382 | 0.6219 | 0.5768 | 0.539 | 0.5029 | 0.4762 | –
101.33 kPa, x1 = 0.4891 | 0.5959 | 0.5607 | 0.524 | 0.4895 | 0.4647 | –
101.33 kPa, x1 = 0.5423 | 0.5752 | 0.5454 | 0.5098 | 0.4781 | 0.4527 | –
101.33 kPa, x1 = 0.5982 | 0.5549 | 0.5306 | 0.496 | 0.4671 | 0.4411 | –
101.33 kPa, x1 = 0.6569 | 0.5406 | 0.5132 | 0.4812 | 0.4546 | 0.4305 | –
101.33 kPa, x1 = 0.7185 | 0.5267 | 0.4963 | 0.4668 | 0.4424 | 0.4203 | –
101.33 kPa, x1 = 0.7834 | 0.5135 | 0.4848 | 0.457 | 0.4315 | 0.4106 | –
101.33 kPa, x1 = 0.8517 | 0.5006 | 0.4737 | 0.4475 | 0.421 | 0.4013 | –
101.33 kPa, x1 = 0.9238 | 0.4888 | 0.4625 | 0.4368 | 0.4131 | 0.3929 | –
